These results are taken from patent US9944721B2, “Polysialic acid and use for treatment of neurodegenerative and neuroinflammatory diseases” (RHEINISCHE FRIEDRICH-WILHELMS UNIVERSITÄT BONN, priority 2013, dated 2018).

Broadly, the EC50 is the concentration giving half of the maximal effect.

Assay [1] concerns humanized Siglec-11 transgenic mice or littermate control mice. In words: Laser-induced animal model of macular degeneration, intravitreal injection. The format is in vivo. The source says: An animal model of macular degeneration was induced by laser technology. Experimental damage of the mouse retina using a laser is a well-accepted animal model for age-related macular degeneration. Laser coagulation and direct damage of Bruch's membrane rapidly lead to microglia and complement activation and induce vascular leakage. Fluorescence angiography is an established method to detect vascular leakage in the retina.
Humanized Siglec-11 transgenic mice (Wang Y, 2009, dissertation, University Bonn, uniform resource name: urn:nbn:de:hbz:5N-18095) or littermate control mice were used in this experiment.
Three argon laser coagulation spots were induced (125 mW, 100 ms, […], Viridis, Quantel Medical, France) in the retina of the mice. Directly afterwards the mice were injected intra-vitreally with PSA-20 (3 μg/per eye) or a PBS vehicle control.
Retinal tissue was analyzed 48 hours after the laser lesion by immunohistochemistry. Therefore, whole mount immunostaining was performed with a polyclonal rabbit-anti-ionized calcium-binding adapter molecule 1 (Iba1) antibody followed by fluorescein (FITC)-conjugated secondary antibody directed against rabbit immunoglobulin (IgG). Confocal images of the inner plexiform layer from the retina were collected and the percentage of the activated amoeboid microglia in relation to the total Iba1-positive microglia was determined in and outside the laser lesion of the PSA-20 treated Siglec-11 and the control mice.
To determine the inflammation mediated vascular leakage, fluorescein angiography was performed 48 hours after laser coagulation lesion of the retina. In detail, anesthetized animals were injected intraperitoneally with 0.1 ml 2.5% fluorescein in 0.9% sterile NaCl. Late stage angiography pictures were taken eleven minutes after fluorescein injection on a Spectralis HRA2 retina angiograph (Heidelberg Engineering) to visualize vessel leakage. Angiography pictures were exported from Heidelberg Eye Explorer Software as jpeg files. Pixel intensities of 6 regions of interest (roi) per picture were quantified with ImageJ and background fluorescence was subtracted.
At 48 hours before angiography, three argon laser coagulation spots were induced (125 mW, 100 ms, 100 μm, Viridis, Quantel Medical, France) in the retina of the Siglec-11 transgenic or littermate control mice. Mice were injected intra-vitreally with PSA-20 (3 μg/per eye) or a PBS vehicle control. […] Statistically significant groups were determined by One-Way ANOVA and Student's t-test. […]
Again, the laser damage of retinas was induced in the humanized Siglec-11 transgenic mice or littermate controls as described above. […] Single data points indicate individual eyes analyzed. Data were analyzed by ordinary one-way ANOVA followed by Tukey's multiple comparisons test. […]

The subject of another assay is human microglia. In words: Microglial phagocytosis of fluorescently labeled neural debris. The format is cell-based. Conditions: 1 hour pre-incubation, untreated 32%+/−0.02. The method, then:
The human microglia were challenged with fluorescently labeled neural debris and the uptake of the debris into the cells was determined by confocal microscopy and 3D-reconstruction.
To receive debris, neural stem cells were incubated with 40 nM okadaic acid (Sigma) for 24 hours. Then, cellular debris was collected and centrifuged. Debris was washed with PBS and stained with “Dil Derivatives for Long-Term Cellular Labeling” Molecular Probes (Invitrogen) according to the supplier's manual. Microglial cells were pre-incubated for 1 hour with concentration of 0.15 μM, 0.5 μM or 1.5 μM PSA-20 followed by 1 hour of incubation with 5 μg/ml prestained neural debris. Cells were fixed and incubated with an anti-iba1 antibody (Wako, Japan) followed by a secondary Alexa488-conjugated antibody (Molecular probes). For analysis images were randomly scanned and 3D-reconstructions were obtained by a confocal laser scanning microscope (Fluoview 1000, Olympus). To determine the ratio of cells having ingested fluorescently labeled material, six images per experiment group were obtained and all cells on the images were quantified using Image J software (NIH).

Assay [2] relates to human induced pluripotent stem cell derived microglia (iPSdM-1). In words: Half maximum effective concentration for reduction of LPS-induced TNF-α gene transcript. The class given is cell-based. The note with it: LPS 1 μg/ml, 24 hours. The procedure: Human induced pluripotent stem cell derived microglia (iPSdM) were obtained from iPS cells. iPSdM-1 line was used in this study generated from the iLB-C-35m-r1 clone (Bonn). iPSdM-1 (here named microglia or microglial cells) were culture in N2-medium consisting of DMEM/F12 culture medium (Gibco) supplemented with 1% N2 (Invitrogen), 0.48 mM L-glutamine (Gibco) and 100 μg/ml penicillin/streptomycin (Gibco). Cells were cultured with high density and split 1:5. After splitting, cells recovered and attached again to the new dishes.
Cells were treated for 24 hours with 1 μg/ml lipopolysaccharides (LPS) and 5 nM, 15 nM, 50 nM, 150 nM, 500 nM, 1.5 μM, 5 μM, 15 μM, 50 μM or 150 μM of PSA-20. For gene transcript analysis of TNF-α, RNA was collected from cells via the RNeasy kit system (Quiagen) Reverse transcription of the RNA was performed using Super Script II reverse transcriptase (Life Technologies) and hexamer random primers (Roche). Quantitative RT-PCR with specific oligonucleotides was performed with SYBR Green PCR Master Mix (Qiagen) using the ABI 5700 Sequence Detection System (PerkinElmer). The qRT-PCR was running for 40 cycles with a Tm of 60° C. using the same primer as for the PCR. The […] method with GAPDH as internal standard was performed for qRT-PCR quantification.

Consider poly-(α(2→8)Neu5Ac)n [PSA-20], for which, in assay [1] (Siglec-11 transgenic mice, 3 μg/per eye intravitreal, 48 hours after laser lesion, FIG. 7D), the “Microglial activation (activated amoeboid microglia to total Iba1-positive microglia)” value is “significantly reduced”. Further, the “vascular leakage (fluorescein angiography)” value in assay [1] (Siglec-11 transgenic mice, 3 μg/per eye intravitreal, 48 hours after laser, FIG. 7E) was “significantly reduced vascular leakage”; in assay [1] (repeat, at least 8 retinas per group, Siglec-11 transgenic mice, 48 hours, vehicle 117.8+/−7.8, FIG. 7G), 84.07+/−8.2. In addition, the “microglial Iba1 immunoreactivity” value in assay [1] (normal mice, 3 μg/per eye intravitreal, 48 hours after laser lesion) is reported as “No effect”. In addition, the results for the “percentage of microglia having ingested neural debris” value in the assay on human microglia (0.5 μM) and with human microglia (1.5 μM) were 25%+/−0.02 and 22%+/−0.01, respectively. Also, the “concentration reducing the LPS-induced gene transcription of TNF-α” value in assay [2] (FIG. 10B) was at least 0.05 µM. The EC50 in assay [2] (read-out: EC50 in human microglia (reduction of LPS-induced TNF-α gene transcript by 50%)) came to 90 nM.
